System: 415267-285-R-J2-PDC complex spheroid viability
Experiment: Anticancer human tumor 415267-285-R-J2-PDC patient-derived breast carcinoma cell line growth inhibition [POLQ]
Details: for IC50: curve of first compound; for viability, T/C: stronger effect = lower value
Summary of the method: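 Growth inhibition in 3D: complex spheroids (tumor PDC, HUVEC, MSC) treated with POLQ inhibitor combinations; where Cmax unknown, highest tested concentration 10 microM, except SN-38 at 1 microM.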

[1] = second compound 0.0316 µM, first compound 0.0316 µM
[2] = second compound 0.0316 µM, first compound 0.1 µM
[3] = second compound 0.0316 µM, first compound 0.316 µM
[4] = second compound 0.0316 µM, first compound 1 µM
[5] = second compound 0.1 µM, first compound 0.0316 µM
[6] = second compound 0.1 µM, first compound 0.1 µM
[7] = second compound 0.1 µM, first compound 0.316 µM
[8] = second compound 0.1 µM, first compound 1 µM
[9] = second compound 0.316 µM, first compound 0.0316 µM
[10] = second compound 0.316 µM, first compound 0.1 µM
[11] = second compound 0.316 µM, first compound 0.316 µM
[12] = second compound 0.316 µM, first compound 1 µM
[13] = second compound 1 µM, first compound 0.0316 µM
[14] = second compound 1 µM, first compound 0.1 µM
[15] = second compound 1 µM, first compound 0.316 µM
[16] = second compound 1 µM, first compound 1 µM
[17] = second compound 3.16 µM, first compound 0.0316 µM
[18] = second compound 3.16 µM, first compound 0.1 µM
[19] = second compound 3.16 µM, first compound 0.316 µM
[20] = second compound 3.16 µM, first compound 1 µM
[21] = second compound 10 µM, first compound 0.0316 µM
[22] = second compound 10 µM, first compound 0.1 µM
[23] = second compound 10 µM, first compound 0.316 µM
[24] = second compound 10 µM, first compound 1 µM
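Note: spheroids exposed to compounds for one week before readout.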
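Throughout, for viability, T/C: luminescence used as stand-in measure of viable cells; 100% = DMSO vehicle control viability.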

CCc1c2c(nc3ccc(O)cc13)-c1cc3c(c(=O)n1C2)COC(=O)[C@]3(O)CC + COC1C(OC(N)=O)C(O)C(Oc2ccc3c(O)c(NC(=O)c4ccc(O)c(CC=C(C)C)c4)c(=O)oc3c2C)OC1(C)C was tested, and the IC50 (second compound 0.0316 µM) was under 0.00316 µM, the IC50 (second compound 0.1 µM) was under 0.00316 µM and the IC50 (second compound 0.316 µM) was under 0.00316 µM. It also gave an IC50 (second compound 1 µM) of under 0.00316 µM, an IC50 (second compound 3.16 µM) of under 0.00316 µM and an IC50 (second compound 10 µM) of under 0.00316 µM. For the same compound, the viability, T/C (second compound 0.0316 µM, first compound 0.00316 µM) was 32.7%, the viability, T/C (second compound 0.0316 µM, first compound 0.01 µM) was 10% and the viability, T/C [1] was 6.54%. The viability, T/C [2] was 4.82%, the viability, T/C [3] was 3.41% and the viability, T/C [4] was 1.27%. For the same compound, the viability, T/C (second compound 0.1 µM, first compound 0.00316 µM) was 38.3%, the viability, T/C (second compound 0.1 µM, first compound 0.01 µM) was 11% and the viability, T/C [5] was 7.02%. The viability, T/C [6] was 5.02%, the viability, T/C [7] was 3.21% and the viability, T/C [8] was 1.32%. For the same compound, the viability, T/C (second compound 0.316 µM, first compound 0.00316 µM) was 36.5%, the viability, T/C (second compound 0.316 µM, first compound 0.01 µM) was 11% and the viability, T/C [9] was 9.37%. For the same compound, the viability, T/C [10] was 4.84%, the viability, T/C [11] was 5.41% and the viability, T/C [12] was 1.19%. The viability, T/C (second compound 1 µM, first compound 0.00316 µM) was 43.8%, the viability, T/C (second compound 1 µM, first compound 0.01 µM) was 9.67% and the viability, T/C [13] was 7.66%. For the same compound, the viability, T/C [14] was 4.1%, the viability, T/C [15] was 4.05% and the viability, T/C [16] was 1.96%. The viability, T/C (second compound 3.16 µM, first compound 0.00316 µM) was 39.8%, the viability, T/C (second compound 3.16 µM, first compound 0.01 µM) was 9.67% and the viability, T/C [17] was 6.74%. It also gave a viability, T/C [18] of 4.81%, a viability, T/C [19] of 3.35% and a viability, T/C [20] of 1.51%. The viability, T/C (second compound 10 µM, first compound 0.00316 µM) was 40.3%, the viability, T/C (second compound 10 µM, first compound 0.01 µM) was 10.1% and the viability, T/C [21] was 7.22%. The viability, T/C [22] was 4.24%, the viability, T/C [23] was 3.48% and the viability, T/C [24] was 1.63%.
For O=C(c1cc(Cc2n[nH]c(=O)c3ccccc23)ccc1F)N1CCN(C(=O)C2CC2)CC1 + COC1C(OC(N)=O)C(O)C(Oc2ccc3c(O)c(NC(=O)c4ccc(O)c(CC=C(C)C)c4)c(=O)oc3c2C)OC1(C)C, the IC50 (second compound 0.0316 µM) was over 10 µM, the IC50 (second compound 0.1 µM) was over 10 µM and the IC50 (second compound 0.316 µM) was over 10 µM. The IC50 (second compound 1 µM) was over 10 µM, the IC50 (second compound 3.16 µM) was over 10 µM and the IC50 (second compound 10 µM) was over 10 µM. The viability, T/C [1] was 88%, the viability, T/C [2] was 92.7% and the viability, T/C [3] was 89.4%. It also gave a viability, T/C [4] of 94.3%, a viability, T/C (second compound 0.0316 µM, first compound 3.16 µM) of 96.5% and a viability, T/C (second compound 0.0316 µM, first compound 10 µM) of 81.8%. The viability, T/C [5] was 95.5%, the viability, T/C [6] was 94% and the viability, T/C [7] was 87%. It also gave a viability, T/C [8] of 92%, a viability, T/C (second compound 0.1 µM, first compound 3.16 µM) of 94.6% and a viability, T/C (second compound 0.1 µM, first compound 10 µM) of 79.6%. The viability, T/C [9] was 93.5%, the viability, T/C [10] was 102% and the viability, T/C [11] was 98.2%. It also gave a viability, T/C [12] of 96.6%, a viability, T/C (second compound 0.316 µM, first compound 3.16 µM) of 90.4% and a viability, T/C (second compound 0.316 µM, first compound 10 µM) of 95.1%. It also gave a viability, T/C [13] of 98.5%, a viability, T/C [14] of 101% and a viability, T/C [15] of 96.8%. For the same compound, the viability, T/C [16] was 90.9%, the viability, T/C (second compound 1 µM, first compound 3.16 µM) was 96% and the viability, T/C (second compound 1 µM, first compound 10 µM) was 77.9%. For the same compound, the viability, T/C [17] was 97.2%, the viability, T/C [18] was 91.9% and the viability, T/C [19] was 90.8%. For the same compound, the viability, T/C [20] was 94.8%, the viability, T/C (second compound 3.16 µM, first compound 3.16 µM) was 98.3% and the viability, T/C (second compound 3.16 µM, first compound 10 µM) was 81.4%. The viability, T/C [21] was 97.6%, the viability, T/C [22] was 105% and the viability, T/C [23] was 92%. For the same compound, the viability, T/C [24] was 93.2%, the viability, T/C (second compound 10 µM, first compound 3.16 µM) was 89.2% and the viability, T/C (second compound 10 µM, first compound 10 µM) was 79.7%.

From PubChem BioAssay AID1963847 (Molecular Pharmacology Branch, DTP, NCI, 2024)
